Test results as given in the supplement of paper PMC10307832.

Columns and labels:
Experiment in all cases: relative viability (nuclei count vs DMSO), 5 days (fraction); higher = more cells survive
Carfilzomib + Alpelisib = compound: CC(C)C[C@H](NC(=O)[C@H](CCc1ccccc1)NC(=O)CN1CCOCC1)C(=O)N[C@@H](Cc1ccccc1)C(=O)N[C@@H](CC(C)C)C(=O)[C@@]1(C)CO1 [Carfilzomib] + Cc1nc(NC(=O)N2CCC[C@H]2C(N)=O)sc1-c1ccnc(C(C)(C)C(F)(F)F)c1 [Alpelisib] (partner 2 µM)
In short: (§1)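 Values are medians from duplicate plates. Each reflects relative viability, defined as the nuclei count of treated wells over that of vehicle wells. Lung cancer cell lines in 1536-well plates were pin-tool dosed one day after seeding with one drug alone or with a fixed anchor-drug dose plus five library-drug doses (not always all listed) in √10 steps, then fixed, stained and imaged at 4× after 5 days.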

Carfilzomib + Bortezomib = compound: CC(C)C[C@H](NC(=O)[C@H](CCc1ccccc1)NC(=O)CN1CCOCC1)C(=O)N[C@@H](Cc1ccccc1)C(=O)N[C@@H](CC(C)C)C(=O)[C@@]1(C)CO1 [Carfilzomib] + CC(C)C[C@H](NC(=O)[C@H](Cc1ccccc1)NC(=O)c1cnccn1)B(O)O [Bortezomib] (partner 0.002 µM)
In short: as §1

Crizotinib + Lapatinib = compound: C[C@@H](Oc1cc(-c2cnn(C3CCNCC3)c2)cnc1N)c1c(Cl)ccc(F)c1Cl [Crizotinib] + CS(=O)(=O)CCNCc1ccc(-c2ccc3ncnc(Nc4ccc(OCc5cccc(F)c5)c(Cl)c4)c3c2)o1 [Lapatinib] (partner 2 µM)
In short: as §1

Olaparib + AZD7762 = compound: O=C(c1cc(Cc2n[nH]c(=O)c3ccccc23)ccc1F)N1CCN(C(=O)C2CC2)CC1 [Olaparib] + NC(=O)Nc1cc(-c2cccc(F)c2)sc1C(=O)N[C@H]1CCCNC1 [AZD7762] (partner 0.2 µM)
In short: as §1

| Cell Line | relative viability (Carfilzomib + Alpelisib; first compound 0.001 µM) | relative viability (Carfilzomib + Alpelisib; first compound 0.003162 µM) | relative viability (Carfilzomib + Alpelisib; first compound 0.01 µM) | relative viability (Carfilzomib + Alpelisib; first compound 0.03162 µM) | relative viability (Carfilzomib + Alpelisib; first compound 0.1 µM) | relative viability (Carfilzomib + Bortezomib; first compound 0.001 µM) | relative viability (Carfilzomib + Bortezomib; first compound 0.003162 µM) | relative viability (Carfilzomib + Bortezomib; first compound 0.01 µM) | relative viability (Carfilzomib + Bortezomib; first compound 0.03162 µM) | relative viability (Carfilzomib + Bortezomib; first compound 0.1 µM) | relative viability (Crizotinib + Lapatinib; first compound 0.01 µM) | relative viability (Crizotinib + Lapatinib; first compound 0.1 µM) | relative viability (Crizotinib + Lapatinib; first compound 0.3162 µM) | relative viability (Crizotinib + Lapatinib; first compound 1 µM) | relative viability (Olaparib + AZD7762; first compound 0.08 µM) | relative viability (Olaparib + AZD7762; first compound 0.253 µM) | relative viability (Olaparib + AZD7762; first compound 2.53 µM) | relative viability (Olaparib + AZD7762; first compound 8 µM) | relative viability (Crizotinib + Lapatinib; first compound 0.03162 µM) |
| --- | --- | --- | --- | --- | --- | --- | --- | --- | --- | --- | --- | --- | --- | --- | --- | --- | --- | --- | --- |
| 201T | 0.986 | 1.05 | 0.983 | 1.07 | 0.893 | 1.09 | 1.06 | 1.1 | 1.09 | 0.732 | 0.891 | 1.03 | 1.05 | 1.06 | 0.641 | 0.609 | 0.522 | 0.383 | – |
| A549 | 0.652 | 0.754 | 0.755 | 0.0509 | 0.04 | – | – | – | – | – | 0.996 | 1.03 | – | 1.05 | – | – | – | – | 1.06 |
| A-427 | 1.07 | 1.07 | 1.06 | 0.699 | 0.1 | 0.995 | 0.963 | 0.727 | 0.436 | 0.131 | 0.852 | 1.09 | – | 1.12 | 0.786 | 0.671 | 0.579 | 0.427 | 1.07 |
| ABC-1 | 1.16 | 1.09 | 0.636 | 0.246 | 0.267 | 0.334 | 0.231 | 0.242 | 0.27 | 0.225 | 1.2 | 1.16 | 1.12 | 1.36 | 0.799 | 0.75 | 0.842 | 0.691 | 1.1 |
| BEN | 1.04 | 1.22 | 1.12 | 0.83 | 0.499 | 0.518 | 0.929 | 0.883 | 0.485 | 0.281 | 0.697 | 0.642 | 0.719 | 0.749 | 0.638 | 0.571 | 0.727 | 0.664 | 0.69 |
| CAL-12T | – | 1.38 | 1.3 | 0.619 | 0.105 | – | 1.17 | 1.13 | 0.691 | 0.195 | 0.664 | 0.658 | – | 0.608 | 0.757 | 0.555 | 0.726 | 0.544 | 0.771 |
| COR-L23 | 0.735 | 0.879 | 0.709 | 0.0481 | 0.052 | 0.94 | 0.877 | 0.253 | 0.0785 | 0.0696 | 0.835 | 0.983 | 0.985 | 0.985 | – | – | – | – | 1.1 |
| COR-L 105 | 1.04 | 1.16 | 0.85 | 0.566 | 0.246 | 0.724 | 0.658 | 0.527 | 0.265 | 0.239 | 0.345 | 0.373 | 0.32 | 0.374 | – | – | – | – | 0.38 |
| Calu-6 | 0.93 | 1.02 | 0.838 | 0.174 | 0.102 | 0.886 | 0.713 | 0.299 | 0.119 | 0.106 | 1.07 | 1.07 | 1.05 | 0.991 | – | – | – | – | 1.1 |
| ChaGo-K-1 | – | – | – | – | – | – | 1.25 | 0.851 | 0.501 | 0.381 | – | – | – | – | 0.955 | 0.785 | 0.811 | 0.626 | – |
| EBC-1 | 0.7 | 0.792 | 0.259 | 0.112 | 0.13 | 0.524 | 0.317 | 0.149 | 0.119 | 0.168 | 0.213 | 0.197 | 0.206 | 0.205 | – | – | – | – | 0.223 |
| EKVX | 0.845 | 1.06 | 0.953 | 0.837 | 0.363 | 1.03 | 1.08 | 1.14 | 0.285 | 0.345 | 0.218 | 0.175 | 0.186 | 0.186 | 0.81 | 0.618 | 0.782 | 0.741 | 0.191 |
| EMC-BAC-2 | 0.699 | 0.733 | 0.757 | 0.758 | 0.326 | 1.03 | 1.06 | 1.07 | 0.66 | 0.448 | 0.852 | 0.911 | 0.749 | 0.887 | 1.25 | 1.08 | 1.08 | 0.91 | 0.897 |
| EPLC-272H | 0.884 | 1.03 | 0.83 | 0.141 | 0.106 | 0.738 | 0.626 | 0.655 | 0.105 | 0.0698 | 0.861 | 0.945 | 0.9 | 1.11 | 0.289 | 0.163 | 0.176 | 0.114 | 0.996 |
| H3255 | 0.749 | 0.886 | 0.723 | 0.494 | 0.154 | 0.765 | 0.769 | 0.841 | 0.315 | 0.179 | 0.254 | 0.234 | 0.238 | 0.219 | 1.04 | 0.823 | 0.852 | 0.933 | 0.267 |
| HARA | 0.79 | 0.857 | 1.07 | 0.0576 | 0.0587 | 1.2 | 1.05 | 0.394 | 0.0539 | 0.0619 | 0.662 | 0.636 | 0.824 | 0.667 | 0.302 | 0.43 | 0.251 | 0.206 | 0.699 |
| HCC-15 | 0.855 | 0.914 | 0.86 | 0.506 | 0.0942 | 0.979 | 0.978 | 1.01 | 0.481 | 0.0765 | 0.831 | 0.886 | 0.549 | 0.836 | 1.24 | 1.11 | 1.23 | 1.08 | 0.881 |
| HCC-44 | 0.786 | 0.785 | 0.861 | 0.705 | 0.134 | 0.876 | 0.917 | 0.897 | 0.552 | 0.147 | 0.96 | 1.14 | – | 1.05 | 1.01 | 1 | 1.03 | 1.07 | 1.02 |
